Results reported in patent US20110257245A1, “METHODS OF IDENTIFYING REGULATORS OF CELLULAR PROTEOSTASIS” (The Board of Trustees of the Leland Stanford Junior …, priority 2010, published 2011).
Where a SMILES comes first, the peptide text is derived from it. The star is where a group is joined. Cbz = O=C(OCc1ccccc1)*

B1: [35S]PY-Sic1(Ubn): [35S]-labeled polyubiquitinated PY-Sic1 model substrate of the 26S proteasome (protein, UniProt P38634 1-284, looked up)
Protein SIC1: MTPSTPPRSRGTRYLAQPSGNTSSSALMQGQKTPQKPSQNLVPVTPSTTKSFKNAPLLAPPNSNMGMTSPFNGLTSPQRSPFPKSSVKRTLFQFESHDNGTVREEQEPLGRVNRILFPTQQNVDIDAAEEEEEGEVLLPPSRPTSARQLHLSLERDEFDQTHRKKIIKDVPGTPSDKVITFELAKNWNNNSPKNDARSQESEDEEDIIINPVRVGKNPFASDELVTQEIRNERKRAMLRENPDIEDVITYVNKKGEVVEKRRLTDEEKRRFKPKALFQSRDQEH
modifications: 35S label, PY motif, polyubiquitinated
notes: [35S]-labeled polyubiquitinated PY-Sic1 model substrate of the 26S proteasome

Legend:
[1] = tested on: HEK293 cells stably expressing GFP-CL1, UbG76V-GFP, Ub-R-GFP or cODC-GFP; experiment: Fluorescent proteasome reporters challenged with proteasome inhibitor; format: cell-based; conditions: 10 μM MG-132, all four reporters
Experimental: FIG. 6 depicts features of fluorescent proteasome reporters, used in embodiments of the present invention. Untransfected HEK293 cells, and cells stably expressing GFP-CL1, UbG76V-GFP, Ub-R-GFP or cODC-GFP were treated with 10 μM MG-132 and at the times indicated, mean GFP fluorescence was analyzed by flow cytometry (Panel A) or by fluorescence microscopy of living cells (Panel B). […] Cells were incubated overnight at the permissive temperature 32° C. (black bars), at 32° C. in the presence of 10 μM MG-132 (white bars) or at the non-permissive temperature 40° C. (grey bars). Mean GFP fluorescence was analyzed by flow cytometry, and plotted as relative fluorescence change. […] HEK293 cells stably expressing UbG76V-GFP or GFP were transiently transfected with httchFP, and analyzed as described in FIG. 1B. […] Htt(Q91)-chFP-specific GFP fluorescence is plotted for GFP (♦) and UbG76V-GFP expressing cells (▪).
Unless indicated, cells were harvested 72 hrs after transfection and analyzed with a Becton-Dickinson LSRII flow cytometer with a 488 nm and a 535 nm Laser (BD, Franklin Lakes, N.J.). To ensure a sufficient number of cells with elevated levels of the transfected protein, over 200,000 cells were analyzed per condition in a typical experiment. […] Raw flow cytometry data were analyzed using FlowJo (version 8.8.6, Tree Star) software. […]

[2] = tested on: 26S proteasomes; experiment: In vitro Sic1 degradation assay; format: biochemical, rat
Experimental: The substrate degradation reaction was carried out at room temperature in 50-100 μL total volume containing 10 nM 26S, 1×ATP buffer, and 100 nM [35S]Sic1-Ubn. 5 μL reaction aliquots were removed at various time points and separated on a 4-20% gradient gel followed by autoradiography. Alternately, aliquots were added to 10% trichloroacetic acid (TCA) or ddH20 on ice for 30 min and 2 mg/mL bovine serum albumin as a carrier. Samples were centrifuged at 12,000×g for 30 min, and the supernatant removed for analysis by scintillation spectrometry. The percent of degradation was determined by dividing the measured counts after TCA precipitation by the total counts measured in ddH20. To assess the ubiquitin-dependence of degradation, [35S]Sic1-Ubn was pretreated with 10 nM Usp2 cc (Baker et al., 2005) for 30 min at 37° C. prior to the addition of proteasomes. To inhibit substrate degradation, 26S proteasomes were pretreated with 10 μM MG132 (Biomol) prior to the addition of substrate. The initial rate of degradation was determined by least-squares linear regression analyses of 5, 10, and 20 min time points using Sigmaplot. The dependence of the initial rate of degradation on substrate concentration was plotted, and the data fit to the Michaelis-Menten equation using Sigmaplot.

Molecule | fluorescence of GFP-degron proteasome reporters [1] | effect on degradation of PY-Sic1(Ubn) by purified proteasomes ([2]; 10 μM MG132, 10 nM 26S, 100 nM substrate) | Km ([2]; 10 nM 26S proteasomes, read-out: Km of [35S]PY-Sic1(Ubn) degradation (Michaelis-Menten analysis)) [µM]
CC(C)C[C@@H](C=O)NC(=O)[C@H](CC(C)C)NC(=O)[C@H](CC(C)C)NC(=O)OCc1ccccc1 [MG132] (Cbz-Leu-Leu-Leu-aldehyde) | diffuse time-dependent increases in cytoplasmic fluorescence | inhibited | 
B1 |  |  | 0.0469 ± 0.0035
